One compound from PMC10160475, “Biological evaluation and in silico studies of novel compounds as potent TAAR1 agonists that could be used in schizophrenia treatment” (Frontiers in Pharmacology, 2023) can be followed below.

Each structure is given as a SMILES string.

The target of data set [1] is T1, human dopamine D2L receptors (Homo sapiens, UniProt P14416).
T1 construct: expressed in transfected cells; host or cells: Flp-In-CHO cells
The data set is described as follows: cAMP assay, inhibition at human dopamine D2L receptors. The format is cell-based. The method, then:
With regard to D2L and D2S, recombinant Flp-In™-CHO cells expressing human dopamine D2L receptors or D2S receptors were cultured with Ham’s F-12K (Kaighn’s) medium supplemented with 10% FBS, penicillin (100 U/ml), streptomycin (100 μg/ml), and hygromycin B (600 μg/ml) at 37°C in an atmosphere of 5% CO2. The methods of cell inoculation and compound treatment were the same as those for TAAR1, and haloperidol was used as the MAX control. Percentage inhibition was calculated using the following equation: Inhibition %=mean RLUtest sample−mean RLUvehicle control/mean RLUMAX control−mean RLUvehicle control×100%.
In general terms: Cyclic AMP is a second messenger, typically raised through Gs and lowered through Gi signalling.

Data set [2] has as its target T2, human 5-HT2A (Homo sapiens, UniProt P28223).
T2 construct: expressed in transfected cells; host or cells: Flp-In-CHO cell line
The data set is described as follows: Calcium (FLIPR) assay, agonist activity at human 5-HT2A. The format is cell-based. How it is done:
(§1) With regard to 5-HT2A, the agonistic or inhibitory activity of 5-HT2A of compounds was determined using the Flp-In™-CHO cell line expressing human 5-HT2A. Cells were cultured with Ham’s F-12K (Kaighn’s) medium supplemented with 10% FBS, penicillin (100 U/ml), streptomycin (100 μg/ml), and hygromycin B (600 μg/ml) at 37°C in an atmosphere of 95% air and 5% CO2. Cells were stimulated with different concentrations of compounds for 2 h at 37°C after seeding in 384-well microplates. For the determination of agonistic activity, serotonin was used as the MAX control. In the determination of inhibitory activity, ketanserin was used as the MAX control.

In data set [3] the target is T2, human 5-HT2A. Put plainly: Calcium (FLIPR) assay, antagonist activity at human 5-HT2A. The format is cell-based. The method, then: as §1
Data set [4] in a line: Liver microsomal stability, mouse. How it is done: (§2) Compounds were incubated with samples of liver microsomes from mice, rats, and humans and NADPH for 5, 10, 20, 30, or 60 min at 37°C. A cold acetonitrile solution containing tolbutamide was used to terminate the reaction. Testosterone and dextromethorphan were used as positive controls. LC-MS/MS was employed to determine the retention of compounds. The retention time, chromatogram acquisition, and chromatogram integration of compounds and positive control substances were analyzed using Analyst (AB Sciex, Framingham, MA, United States).
For orientation: Liver microsomes are a subcellular fraction often used to study metabolism.

Data set [5] is described as follows: Permeability and transporter substrate evaluation in Caco-2 cells. The format is in vitro ADME. Particulars: human. How it is done: Cells were seeded into 96-well cell plates and cultured continuously for 24 days for subsequent experiments. Compounds were administered with or without verapamil (2 µM). […] The […] content in each sample was measured by liquid chromatography–tandem mass spectrometry (LC-MS/MS). The apparent permeability coefficient and the efflux ratio were calculated.
(Caco-2 monolayers are a common model of the intestinal barrier.)

The next data set addresses T3, hERG (Homo sapiens, UniProt Q12809).
T3 construct: expressed in transfected cells; host or cells: CHO cells stably expressing hERG
Put plainly: hERG assay (electrophysiological recording, CHO cells stably expressing hERG). The format is cell-based. The note with it: up to a maximum concentration of 30 μM. The method, then:
CHO cells stably expressing hERG cultured with DMEM/F12 supplemented with 10% FBS, penicillin (100 U/ml), and streptomycin (100 μg/ml) were cultured in cell culture dishes (diameter = 35 mm) in an incubator at 37°C in an atmosphere of 5% CO2. They were passaged at a ratio of 1:5 every 48 h. The medium comprised 90% F12, 10% FBS, G418 (100 μg/ml), and hygromycin B (100 μg/ml). On the day of the assay, the cell culture medium was aspirated and washed with an extracellular solution. Then, 0.25% Trypsin–EDTA solution was added, and digestion was allowed for 3–5 min at room temperature. Digestive juice was aspirated, and cells were transferred to the experimental dish for electrophysiological recording after resuspension with the extracellular solution for future use.

Data set [6] can be described thus: Liver microsomal stability, human. The method, then:
as §2

Data set [7] in a line: Tissue distribution (brain and plasma) in rats. The format is in vivo, Sprague–Dawley rats. How it is done:
Rats (three males and three females) were sacrificed at 0.25, 1, or 6 h after administration of 50B (5 mg/kg, i.g.). Blood and brain tissues were harvested. The concentration of compounds in all tissue and blood samples was determined by LC-MS/MS. Drug concentration data were processed in a non-atrioventricular model using WinNonlin™ 6.3.

Data set [8] is described as follows: Liver microsomal stability, monkey.

T2 sequence (P28223 whole entry): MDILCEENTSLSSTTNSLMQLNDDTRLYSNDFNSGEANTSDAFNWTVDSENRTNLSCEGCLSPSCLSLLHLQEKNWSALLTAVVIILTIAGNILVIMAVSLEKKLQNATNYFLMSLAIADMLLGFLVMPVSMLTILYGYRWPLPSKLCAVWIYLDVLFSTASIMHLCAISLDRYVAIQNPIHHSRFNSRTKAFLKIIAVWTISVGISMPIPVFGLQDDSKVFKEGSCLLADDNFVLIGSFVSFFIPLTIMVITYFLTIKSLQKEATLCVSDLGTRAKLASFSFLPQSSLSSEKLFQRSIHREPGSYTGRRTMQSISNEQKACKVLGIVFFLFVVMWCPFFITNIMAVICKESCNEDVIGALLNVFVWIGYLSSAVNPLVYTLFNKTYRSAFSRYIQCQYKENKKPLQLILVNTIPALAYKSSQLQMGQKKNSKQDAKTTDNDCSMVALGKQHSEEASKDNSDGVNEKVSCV
T1 sequence (P14416 whole entry): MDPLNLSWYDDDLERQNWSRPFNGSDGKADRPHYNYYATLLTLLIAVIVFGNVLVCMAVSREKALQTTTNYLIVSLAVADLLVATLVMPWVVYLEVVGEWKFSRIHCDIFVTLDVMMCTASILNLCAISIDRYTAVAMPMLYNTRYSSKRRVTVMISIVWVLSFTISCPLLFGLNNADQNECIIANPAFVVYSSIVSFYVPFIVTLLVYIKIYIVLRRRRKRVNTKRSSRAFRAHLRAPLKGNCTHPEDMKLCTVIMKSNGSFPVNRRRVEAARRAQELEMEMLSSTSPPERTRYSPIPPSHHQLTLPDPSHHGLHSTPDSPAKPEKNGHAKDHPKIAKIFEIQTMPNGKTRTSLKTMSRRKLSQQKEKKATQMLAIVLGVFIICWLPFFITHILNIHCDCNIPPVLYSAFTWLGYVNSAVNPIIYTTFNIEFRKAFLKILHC
T3 sequence (Q12809 whole entry): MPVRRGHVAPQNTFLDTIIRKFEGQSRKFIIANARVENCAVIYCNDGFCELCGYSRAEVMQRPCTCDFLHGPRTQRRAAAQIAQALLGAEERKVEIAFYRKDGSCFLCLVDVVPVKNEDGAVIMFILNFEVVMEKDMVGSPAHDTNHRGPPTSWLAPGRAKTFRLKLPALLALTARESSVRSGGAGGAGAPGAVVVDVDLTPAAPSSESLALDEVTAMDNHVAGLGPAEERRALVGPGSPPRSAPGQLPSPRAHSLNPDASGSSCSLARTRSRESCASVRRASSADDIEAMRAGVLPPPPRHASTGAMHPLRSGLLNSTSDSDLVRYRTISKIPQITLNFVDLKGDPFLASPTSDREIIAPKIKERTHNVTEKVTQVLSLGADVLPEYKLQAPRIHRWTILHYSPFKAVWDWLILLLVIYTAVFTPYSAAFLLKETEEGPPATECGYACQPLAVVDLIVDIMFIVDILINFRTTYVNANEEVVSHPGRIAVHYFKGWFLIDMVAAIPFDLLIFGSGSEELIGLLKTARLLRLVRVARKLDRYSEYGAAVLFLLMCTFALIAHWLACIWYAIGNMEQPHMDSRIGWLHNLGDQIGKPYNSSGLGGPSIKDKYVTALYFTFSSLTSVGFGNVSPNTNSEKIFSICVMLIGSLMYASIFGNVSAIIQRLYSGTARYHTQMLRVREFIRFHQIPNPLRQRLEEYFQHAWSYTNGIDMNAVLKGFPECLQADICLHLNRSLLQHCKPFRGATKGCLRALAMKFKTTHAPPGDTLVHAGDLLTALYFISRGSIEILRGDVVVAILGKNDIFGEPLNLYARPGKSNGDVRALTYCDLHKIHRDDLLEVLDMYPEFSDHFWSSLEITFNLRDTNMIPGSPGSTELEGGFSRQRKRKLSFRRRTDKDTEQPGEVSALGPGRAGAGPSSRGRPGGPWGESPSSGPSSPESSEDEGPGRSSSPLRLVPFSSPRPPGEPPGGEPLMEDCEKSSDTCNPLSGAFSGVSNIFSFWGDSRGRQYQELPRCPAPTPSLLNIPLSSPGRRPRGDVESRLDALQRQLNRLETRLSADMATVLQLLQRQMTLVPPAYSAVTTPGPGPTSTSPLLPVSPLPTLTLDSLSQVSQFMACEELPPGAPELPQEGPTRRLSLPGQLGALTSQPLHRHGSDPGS

With `c1csc([C@@H]2CNCCO2)c1` [Compound 50B], the half-maximal inhibitory concentration (IC50) (in data set [1]; on human 5-HT2A [3]) was > 100 µM throughout. For the same compound, the Emax – broadly, the greatest response seen or fitted, relative to the assay's reference – in [1] (haloperidol as MAX control, up to 100 μM, read-out: dopamine D2L antagonist Emax) turned out to be 5.49%; on human 5-HT2A [2] (serotonin as MAX control, up to 100 μM, read-out: 5-HT2A agonism Emax), 54.9%; on human 5-HT2A [3] (ketanserin as MAX control, up to 100 μM), 31.5%. Also, the half-maximal effective concentration (EC50) (usually the concentration at which the effect is half-maximal) on human 5-HT2A [2] was found to be 61.2 µM. For the same compound, the “Remaining (T = 60 min)” value in data set [4] (Mouse liver microsomes, 60 min) worked out at 53.5%; in data set [6] (Human liver microsomes, 60 min) it was 77.2%; in data set [8] (Monkey liver microsomes, 60 min), 85.1%. Besides, the CLint scaled – broadly, a measure of how fast metabolising enzymes remove a compound, apart from limits set by blood flow – is 80.8 mL/min/kg in [4] (mouse, liver microsomes); 7.74 mL/min/kg in data set [6] (human, liver microsomes); < 13.5 mL/min/kg in data set [8] (monkey, liver microsomes). The half-life (in general, the time needed for the level to fall by half in the phase considered) is 1.13 h in [4] (mouse, liver microsomes); 2.68 h in data set [6] (human, liver microsomes); > 3.1 h in data set [8] (monkey, microsomes). Besides, the efflux ratio – broadly, a quotient of directional permeabilities that is used to spot active efflux – at 120 min in [5] (Caco-2) amounted to 0.781. For the same compound, in data set [5] (Caco-2, 120 min incubation), the apical-to-basolateral permeability (Papp A→B) – broadly, the apparent permeability from the apical to the basolateral side of a cell layer – at 120 min came to 35.2 ×10⁻⁶ cm/s. Also, the Papp B→A (commonly the apparent permeability from the basolateral to the apical side of a cell layer) at 120 min in [5] (Caco-2, 120 min incubation) was found to be 27.5 ×10⁻⁶ cm/s. The hERG cardiotoxicity entry on hERG is given as “not cardiotoxic”. Moreover, in data set [7] (rats, 5 mg/kg i.g.), the “Concentration ratio brain to plasma compared with SEP-856” value is recorded as “increased significantly compared with that of SEP-856”. Besides, the “Plasma concentration compared with SEP-856” value in data set [7] (rats, 5 mg/kg i.g., same time point) is reported as “lower than that of SEP-856”. The “Detection in rat brain” value in data set [7] (single intragastric administration, 5 mg/kg, 0.25 to 6 h) is “detected in rat brains from 0.25 to 6 h”.
